Data published in PMC7199333, “Efficacy and safety of lanreotide autogel compared with lanreotide 40 mg prolonged release in Chinese patients with active acromegaly: results from a phase 3, prospective, randomized, and open-label study (LANTERN)” (BMC Endocrine Disorders, 2020).

Key:
[1] = system: human somatostatin receptor 2; parameters: method as in PMID 7988476; settings: selective somatostatin receptor subtype agonist; cited from earlier work
[2] = cited from earlier work
From the text: Somatostatin analogs (SSAs) are the preferred type of medical therapy used to reduce GH secretion. Patients who have persistent disease following surgical resection are recommended treatment with the first-generation long acting SSAs, octreotide long-acting release (LAR) or lanreotide autogel. Lanreotide is a synthetic octapeptide analog of natural somatostatin with a longer half-life (t½) than the native molecule, and a selective somatostatin receptor subtype agonist with a high affinity for human somatostatin receptors 2 and 5 [5], which are commonly expressed at both the mRNA [6] ... || Steady-state PK was achieved after the administration of four lanreotide autogel doses. […] Similarly, Bronstein and colleagues reported a steady state Cmin (equivalent to Ctrough) of 3.76 ng/mL [19].

[3] = system: human somatostatin receptor 5; parameters: method as in PMID 7988476; settings: selective somatostatin receptor subtype agonist; cited from earlier work
[4] = Serum lanreotide pharmacokinetics (non-compartmental); format: in vivo, human; settings: lanreotide autogel; fourth titrated dose 120 mg normalized to 90 mg vs first dose of 90 mg; PK subgroup
Experimental: Lanreotide autogel – pre-dose serum samples were taken at weeks 1, 13, 17, and 29; sampling around 4 h after treatment at weeks 13 and 17 and at the end of study (Week 33)/early withdrawal visit. For a subset of patients in the PK subgroup, additional samples were taken during the study and during the PK extension phase: after the first administration of 90 mg at Week 1 (1, 4, 6, 8, 12, 24, and 72 h), Week 2 (168 h), Week 3 (336 h), Week 4 (504 h) and prior to the next administration at Week 5 (672 h); after the fourth (last) administration of the titrated dose at Week 29 (1, 4, 6, 8, 12, 24, and 72 h), Week 30 (168 h), Week 31 (336 h), Week 32 (504 h), and at Week 37 (1344 h) and Week 41 (2016 h).
Lanreotide 40 mg PR – pre-dose serum samples were taken at weeks 1, 2, 13, 16, and at the end-of-study/early withdrawal visit (all taken shortly before treatment) for all patients.
PK endpoints included trough lanreotide concentrations (Ctrough i.e. observed serum concentration at the end of the dosing interval) prior to the fourth, fifth and eighth administrations and at the end-of-study treatment visit with lanreotide autogel, and prior to the second, tenth and twelfth administrations and at the end-of-study visit with lanreotide 40 mg PR. Following a similar approach as reported by Bronstein and colleagues, a non-compartmental PK analysis was performed for the lanreotide autogel PK subgroup to provide individual PK parameters over a 4-week dosing interval after the first and last administration of study drug (i.e. steady state): maximum plasma concentration (Cmax), time to maximum plasma concentration (tmax), area under the concentration–time curve over a 4-week dosing interval (AUCtau), Ctrough and elimination t½ [19].
Additional parameters were estimated, comparing lanreotide PK after Week 1 and Week 29 after normalization to a dose of 90 mg: accumulation ratio for Ctrough (Rtrough) = Ctrough,Week 29/Ctrough,Week 1; accumulation ratio for Cmax (Rmax) = Cmax,Week 29/Cmax,Week 1; accumulation ratio for AUCtau (RAUC) = AUCtau, Week 29/AUCtau, Week 1.

In the case of CC(C)[C@@H]1NC(=O)[C@H](CCCCN)NC(=O)[C@@H](Cc2c[nH]c3ccccc23)NC(=O)[C@H](Cc2ccc(O)cc2)NC(=O)[C@@H](NC(=O)[C@H](N)Cc2ccc3ccccc3c2)CSSC[C@@H](C(=O)N[C@H](C(N)=O)[C@@H](C)O)NC1=O [lanreotide], the “Affinity for human somatostatin receptor 2” value [1] is listed as “high affinity”, the “Half-life (t½) compared with the native molecule (natural somatostatin)” value [2] is listed as “longer” and the “Affinity for human somatostatin receptor 5” value [3] is listed as “high affinity”. The “Mean RAUC (accumulation ratio for AUCtau, Week 29/Week 1)” value [4] was 2.33, the “Mean Rmax (accumulation ratio for Cmax, Week 29/Week 1)” value [4] was 1.40 and the “Mean Rtrough (accumulation ratio for Ctrough, Week 29/Week 1)” value [4] was 2.62.
